Test results reported in ChEMBL document CHEMBL3046123, “Molecular bases for resistance to acetyl-coenzyme A carboxylase inhibitor in Japanese foxtail (Alopecurus japonicus)” (Pest Manag Sci, 2012).

Tests used:
Alopecurus japonicus [1] = assay: Resistance index, ratio of ED50 for haloxyfop-R-methyl-resistant Alopecurus japonicus (Japanese foxtail) biotype Js-R to ED50 for haloxyfop-R-methyl-sensitive Alopecurus japonicus (Japanese foxtail) biotype Js-S; format: functional
Alopecurus japonicus [2] = assay: Herbicidal activity against haloxyfop-R-methyl-resistant Alopecurus japonicus (Japanese foxtail) biotype Js-R assessed as inhibition of shoot length after 14 days; format: functional
Alopecurus japonicus [3] = assay: Herbicidal activity against haloxyfop-R-methyl-sensitive Alopecurus japonicus (Japanese foxtail) biotype Js-S assessed as inhibition of shoot length after 14 days; format: functional
ACCase [4] = target: T1, ACCase (Alopecurus japonicus, UniProt H9BT73); assay: Inhibition of Acetyl-CoA carboxylase (ACCase) in haloxyfop-R-methyl-sensitive Alopecurus japonicus (Japanese foxtail) biotype Js-S shoot extracts; settings: read-out: I50
[5] = target: ACCase (Alopecurus japonicus) (UniProt H9BT73); assay: Resistance index, ratio of I50 for ACCase in haloxyfop-R-methyl-resistant Alopecurus japonicus (Japanese foxtail) biotype Js-R to I50 for Acetyl-CoA carboxylase (ACCase) in haloxyfop-R-methyl-sensitive Alopecurus japonicus (Japanese foxtail) biotype Js-S
ACCase [6] = target: T1, ACCase; assay: Inhibition of Acetyl-CoA carboxylase (ACCase) in haloxyfop-R-methyl-resistant Alopecurus japonicus (Japanese foxtail) biotype Js-R shoot extracts; settings: read-out: I50

| SMILES | Ratio (Alopecurus japonicus [1]) | ED50 (Alopecurus japonicus [2]) [mg/m2] | ED50 (Alopecurus japonicus [3]) [mg/m2] | IC50 (ACCase [4]) [nM] | Ratio [5] | IC50 (ACCase [6]) [nM] |
| --- | --- | --- | --- | --- | --- | --- |
| C#CCOC(=O)[C@@H](C)Oc1ccc(Oc2ncc(Cl)cc2F)cc1 [CLODINAFOP PROPARGYL] | 5.84 | 4.209 | 0.721 | – | – | – |
| CCCCOC(=O)[C@H](C)Oc1ccc(Oc2ccc(C#N)cc2F)cc1 [CYHALOFOP-BUTYL] | 4.85 | 0.698 | 0.144 | – | – | – |
| CCOC(=O)[C@@H](C)Oc1ccc(Oc2nc3ccc(Cl)cc3o2)cc1 [FENOXAPROP-P-ETHYL] | 11.35 | 1.289 | 0.114 | – | – | – |
| CC(Oc1ccc(Oc2ncc(C(F)(F)F)cc2Cl)cc1)C(=O)O (stereo not given) [HALOXYFOP] | – | – | – | 2.6 | 10.8 | 28 |
| CCOC(=O)[C@@H](C)Oc1ccc(Oc2cnc3cc(Cl)ccc3n2)cc1 [QUIZALOFOP-P-ETHYL] | 35.87 | 15.283 | 0.426 | – | – | – |
